This is an account of results in ChEMBL document CHEMBL3856240, “Structural determinants of diphenethylamines for interaction with the κ opioid receptor: Synthesis, pharmacology and molecular modeling studies” (Bioorg Med Chem Lett, 2016).

Some results are limits rather than exact numbers.

One may read the EC50 as the concentration that produces a half-maximal response. A higher EC50 goes with a less potent agent. The term Ki denotes the equilibrium dissociation constant of an inhibitor or competing ligand from its target.

Assay [1] deals with T1, Kappa-type opioid receptor (Homo sapiens, UniProt P41145). Put plainly: Agonist activity at human kappa opioid receptor expressed in CHO cell membranes after 60 mins by [35S]GTPgammaS assay relative to U69,593. The note with it: 1 h, read-out: %max.
The target in assay [2] is T1, Kappa-type opioid receptor. The assay is described as follows: Agonist activity at human kappa opioid receptor expressed in CHO cell membranes after 60 mins by [35S]GTPgammaS assay. (GTPγS resists hydrolysis and so accumulates on activated G proteins.)
The target of assay [3] is Delta-type opioid receptor (Homo sapiens, UniProt P41143). The assay is described as follows: Displacement of [3H]pCl-DPDPE from human delta opioid receptor expressed in CHO cell membranes after 60 mins by liquid scintillation counting. For orientation: In a radioligand displacement assay an active substance lowers the binding of a labelled ligand.
Assay [4] has as its target T1, Kappa-type opioid receptor. The assay is described as follows: Displacement of [3H]U69,593 from human kappa opioid receptor expressed in CHO cell membranes after 60 mins by liquid scintillation counting.
The target in assay [5] is Mu-type opioid receptor (Homo sapiens, UniProt P35372). Put plainly: Displacement of [3H]DAMGO from human mu opioid receptor expressed in CHO cell membranes after 60 mins by liquid scintillation counting.
The target of assay [6] is T1, Kappa-type opioid receptor. The note with it: CHO.
Description: Antagonist activity at human kappa opioid receptor expressed in CHO cell membranes assessed as inhibition of U69,593 stimulated [35S]GTPgammaS binding after 60 mins

T1 sequence (P41145 whole entry): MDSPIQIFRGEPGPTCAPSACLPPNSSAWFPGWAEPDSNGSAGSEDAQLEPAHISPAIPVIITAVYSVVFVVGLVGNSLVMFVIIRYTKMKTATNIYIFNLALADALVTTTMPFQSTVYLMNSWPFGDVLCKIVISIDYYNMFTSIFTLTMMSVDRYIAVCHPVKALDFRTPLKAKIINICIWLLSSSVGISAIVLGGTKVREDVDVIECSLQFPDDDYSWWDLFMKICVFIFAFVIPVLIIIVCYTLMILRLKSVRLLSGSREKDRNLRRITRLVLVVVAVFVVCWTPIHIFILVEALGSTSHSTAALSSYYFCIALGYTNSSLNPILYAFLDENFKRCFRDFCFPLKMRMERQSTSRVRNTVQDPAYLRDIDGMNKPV
Chain of Delta-type opioid receptor (P41143 whole entry): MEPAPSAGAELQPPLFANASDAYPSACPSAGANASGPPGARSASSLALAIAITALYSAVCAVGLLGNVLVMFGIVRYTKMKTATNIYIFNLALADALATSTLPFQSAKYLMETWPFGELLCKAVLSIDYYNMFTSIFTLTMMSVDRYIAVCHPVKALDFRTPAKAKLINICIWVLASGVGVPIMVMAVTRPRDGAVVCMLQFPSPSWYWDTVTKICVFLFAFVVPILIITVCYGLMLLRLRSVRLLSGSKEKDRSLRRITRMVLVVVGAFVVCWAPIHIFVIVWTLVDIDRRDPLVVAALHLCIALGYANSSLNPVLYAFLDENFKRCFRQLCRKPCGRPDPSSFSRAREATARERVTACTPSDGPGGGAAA
Chain of Mu-type opioid receptor (P35372 whole entry): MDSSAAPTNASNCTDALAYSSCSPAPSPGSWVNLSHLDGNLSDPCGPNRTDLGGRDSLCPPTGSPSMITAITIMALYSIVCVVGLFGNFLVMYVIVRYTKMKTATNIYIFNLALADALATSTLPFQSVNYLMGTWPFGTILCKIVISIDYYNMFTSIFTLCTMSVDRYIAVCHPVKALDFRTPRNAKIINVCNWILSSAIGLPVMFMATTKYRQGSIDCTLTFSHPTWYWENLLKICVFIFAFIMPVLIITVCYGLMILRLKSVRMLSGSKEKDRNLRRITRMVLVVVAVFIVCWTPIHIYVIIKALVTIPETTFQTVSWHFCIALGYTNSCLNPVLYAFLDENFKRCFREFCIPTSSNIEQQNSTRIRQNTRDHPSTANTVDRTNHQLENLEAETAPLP

As for `Oc1ccc(CCN(CCc2ccccc2)CC2CCC2)cc1`, in assay [1], the Emax was 43.8%. In addition, the EC50 in assay [2] is 109 nM. The Ki in assay [3] stood at 2130 nM; in assay [4], 36.3 nM; in assay [5] it was 731 nM.

`Oc1ccc(CCN(CCc2ccccc2)CC2CC2)cc1` returned a Ke in assay [6] of 32.1 nM. The molecule also returned an EC50 in assay [2] above 10000 nM. Besides, the Ki stood at 2190 nM in assay [3], 218 nM in assay [4] and 1750 nM in assay [5].

In assay [6], `Oc1cccc(CCN(CCc2ccccc2)CCc2ccccc2)c1` registered a Ke of 1310 nM. Also, in assay [2], the EC50 is above 10000 nM. Besides, the results for the Ki in assay [3], in assay [4] and in assay [5] were above 10000 nM, 211 nM and above 10000 nM, respectively.
